According to patent US9446088B2, “Preparation and use of a plant extract from solanum glaucophyllum with an enriched content of 1,25 dihydroxyvitamin D3 glycosides and quercetin glycosides” (HERBONIS AG, priority 2008, dated 2016):

Tests used:
[1] = test system: Japanese quails (Coturnix japonica) on Vitamin D-deficient diet; test: Japanese quail eggshell bioassay for vitamin D activity; format: in vivo
Excerpt: From Rambeck et al. (see Rambeck et al, Ann. Nutr. Metab. 30, 9-14, (1986)) it is known that the quail egg shell assay is used as a simple bioassay to assess Vitamin D activity. According to this assay, Japanese quails (Coturnix japonica) of egg laying age and selected for a laying performance of >80% were set on a Vitamin D-deficient diet containing all other nutrients in optimal amounts. After approximately 8 days, the laying performance as the most sensitive marker dropped below 10%. Then, the test animals were randomly divided into groups of 10 animals and the diet was changed to the same diet, but supplemented with the substance to be tested. Laying performance was monitored for 21 days together with other markers of vitamin D-metabolism, such as alkaline phosphatase and calcium in plasma.
In Experiment 1 three groups of quails received 100, 200 and 400 international units of vitamin D3 per kg feed, 5 groups received 2, 8, 32, 128 and […] purified plant extract and one group was given synthetic 1, 25-Dihydroxyvitamin D3 (1 μg/kg feed) and another group received ground dried leaves of Solanum glaucophyllum (1000 mg/kg feed).

[2] = test system: commercial broiler chickens; test: Broiler experiment for leg anomalies (tibial dyschondroplasia); format: in vivo; parameters: dose or concentration left out as unconfirmed; details: after day 14 of treatment
Protocol: In experiment 2, male one-day old broiler chickens were fed a commercial diet containing 1,000 IUD/kg feed of vitamin D3 ad libitum. […] 76.8 μg 1,25-Dihydroxyvitamin D3 (determined after in vitro hydrolysis of the extract).

Structure (SMILES)	Eggshell weight (ESW) per day and animal, days 5-21 ([1]; 100 IUD per kg feed) [g]	Average egg weight between day 1 and 21 ([1]; 100 IUD/kg feed) [g]	Egg weight in % of standard group Vitamin D3 400 IUD/kg feed ([1]; 100 IUD/kg feed) [%]	Eggshell weight (ESW) per day and animal, days 5-21 ([1]; 200 IUD per kg feed) [g]	Average egg weight between day 1 and 21 ([1]; 200 IUD/kg feed) [g]	Egg weight in % of standard group Vitamin D3 400 IUD/kg feed ([1]; 200 IUD/kg feed) [%]	Eggshell weight (ESW) per day and animal, days 5-21 ([1]; 400 IUD per kg feed) [g]	Average egg weight between day 1 and 21 ([1]; 400 IUD/kg feed) [g]	time by which laying performance passed 50% after beginning of treatment ([1]; onset of egg laying) [h]	Eggshell weight (ESW) per day and animal, days 5-21 ([1]; 1 μg per kg feed) [g]	Average egg weight between day 1 and 21 ([1]; 1.0 μg/kg feed) [g]	Egg weight in % of standard group Vitamin D3 400 IUD/kg feed ([1]; 1.0 μg/kg feed) [%]	Healthy animals. (%) [2] [b %]	Occurrence of TD (%) [2]	Occurrence of other leg anomalies (%) [2] [b %]
C=C1CC[C@H](O)C/C1=C/C=C1\CCC[C@]2(C)[C@@H]([C@H](C)CCCC(C)C)CC[C@@H]12 [Vitamin D3, cholecalciferol]	0.231	9.61	90	0.434	10.40	97	0.738	10.70	48 to 72						
C=C1/C(=C\C=C2/CCC[C@]3(C)[C@@H]([C@H](C)CCCC(C)(C)O)CC[C@@H]23)C[C@@H](O)C[C@@H]1O [Synthetic 1,25(OH)2D3, 1,25-dihydroxyvitamin D3]										0.502	10.58	99	92.9	3.55 *b %	3.55
